Test system: Energy system protein genes
Test: DNA chip mRNA expression in yeast, energy system protein genes (Table 4)
Format: cell-based, Saccharomyces cerevisiae S288C
Method in brief: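 Measured as treated-to-untreated fluorescence ratio on a full-genome yeast DNA chip. Cells (S288C, YPD, 25° C.) were exposed in log phase for two hours to one chemical, dosed to curb growth without killing.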

Q: Which “The level of expressed mRNA in the presence of chemical substance/The level of expressed mRNA in the absence of chemical substance” value (yeast gene YJR048W) does the source give for `[Cl][Hg][Cl]` [(3), HgCl2] here?
A: 2.2

Q: And the “The level of expressed mRNA in the presence of chemical substance/The level of expressed mRNA in the absence of chemical substance” value (yeast gene YJR121W, cells incubated two hours with the chemical substance)?
A: 3.3

Q: What about the “The level of expressed mRNA in the presence of chemical substance/The level of expressed mRNA in the absence of chemical substance” value (yeast gene YJR155W) of the same compound?
A: 1.4

Q: What about the “The level of expressed mRNA in the presence of chemical substance/The level of expressed mRNA in the absence of chemical substance” value (yeast gene YKL016C, cells incubated two hours with the chemical substance) of the same compound?
A: 0.7

Q: And the “The level of expressed mRNA in the presence of chemical substance/The level of expressed mRNA in the absence of chemical substance” value (yeast gene YKL060C, cells incubated two hours with the chemical substance)?
A: 2.5

Q: What about the “The level of expressed mRNA in the presence of chemical substance/The level of expressed mRNA in the absence of chemical substance” value (yeast gene YKL141W, cells incubated two hours with the chemical substance) of the same compound?
A: 4.7

Q: And the “The level of expressed mRNA in the presence of chemical substance/The level of expressed mRNA in the absence of chemical substance” value (yeast gene YKL148C, cells incubated two hours with the chemical substance)?
A: 3.7

Q: What about the “The level of expressed mRNA in the presence of chemical substance/The level of expressed mRNA in the absence of chemical substance” value (yeast gene YKR009C, cells incubated two hours with the chemical substance) of the same compound?
A: 1.5

Q: And the “The level of expressed mRNA in the presence of chemical substance/The level of expressed mRNA in the absence of chemical substance” value (yeast gene YKR058W, cells incubated two hours with the chemical substance, 25° C., YPD medium)?
A: 1.4

Q: And the “The level of expressed mRNA in the presence of chemical substance/The level of expressed mRNA in the absence of chemical substance” value (yeast gene YKR097W)?
A: 1.3

Q: And the “The level of expressed mRNA in the presence of chemical substance/The level of expressed mRNA in the absence of chemical substance” value (yeast gene YLL041C, cells incubated two hours with the chemical substance)?
A: 4.6

Q: What about the “The level of expressed mRNA in the presence of chemical substance/The level of expressed mRNA in the absence of chemical substance” value (yeast gene YLR038C, cells incubated two hours with the chemical substance) of the same compound?
A: 0.6

Q: And the “The level of expressed mRNA in the presence of chemical substance/The level of expressed mRNA in the absence of chemical substance” value (yeast gene YLR044C, cells incubated two hours with the chemical substance)?
A: 2.2

Q: What about the “The level of expressed mRNA in the presence of chemical substance/The level of expressed mRNA in the absence of chemical substance” value (yeast gene YLR134W, cells incubated two hours with the chemical substance) of the same compound?
A: 2.3

Q: And the “The level of expressed mRNA in the presence of chemical substance/The level of expressed mRNA in the absence of chemical substance” value (yeast gene YLR258W, cells incubated two hours with the chemical substance)?
A: 4.2

Q: What about the “The level of expressed mRNA in the presence of chemical substance/The level of expressed mRNA in the absence of chemical substance” value (yeast gene YLR284C, cells incubated two hours with the chemical substance) of the same compound?
A: 3.8

Q: What about the “The level of expressed mRNA in the presence of chemical substance/The level of expressed mRNA in the absence of chemical substance” value (yeast gene YLR295C, cells incubated two hours with the chemical substance, 25° C., YPD medium) of the same compound?
A: 1.1

Q: And the “The level of expressed mRNA in the presence of chemical substance/The level of expressed mRNA in the absence of chemical substance” value (yeast gene YLR304C, cells incubated two hours with the chemical substance)?
A: 5.0

Q: And the “The level of expressed mRNA in the presence of chemical substance/The level of expressed mRNA in the absence of chemical substance” value (yeast gene YLR345W)?
A: 1.4

Q: And the “The level of expressed mRNA in the presence of chemical substance/The level of expressed mRNA in the absence of chemical substance” value (yeast gene YLR354C, cells incubated two hours with the chemical substance)?
A: 2.3

Q: What about the “The level of expressed mRNA in the presence of chemical substance/The level of expressed mRNA in the absence of chemical substance” value (yeast gene YLR377C, cells incubated two hours with the chemical substance) of the same compound?
A: 1.8

Q: What about the “The level of expressed mRNA in the presence of chemical substance/The level of expressed mRNA in the absence of chemical substance” value (yeast gene YLR395C, cells incubated two hours with the chemical substance) of the same compound?
A: 2.2

Q: What about the “The level of expressed mRNA in the presence of chemical substance/The level of expressed mRNA in the absence of chemical substance” value (yeast gene YML087C) of the same compound?
A: 0.8

Q: And the “The level of expressed mRNA in the presence of chemical substance/The level of expressed mRNA in the absence of chemical substance” value (yeast gene YML120C, cells incubated two hours with the chemical substance)?
A: 1.9

Q: What about the “The level of expressed mRNA in the presence of chemical substance/The level of expressed mRNA in the absence of chemical substance” value (yeast gene YML129C, cells incubated two hours with the chemical substance) of the same compound?
A: 0.9

Q: What about the “The level of expressed mRNA in the presence of chemical substance/The level of expressed mRNA in the absence of chemical substance” value (yeast gene YMR073C, cells incubated two hours with the chemical substance) of the same compound?
A: 1.2

Q: And the “The level of expressed mRNA in the presence of chemical substance/The level of expressed mRNA in the absence of chemical substance” value (yeast gene YMR118C)?
A: 1.4

Q: What about the “The level of expressed mRNA in the presence of chemical substance/The level of expressed mRNA in the absence of chemical substance” value (yeast gene YMR205C, cells incubated two hours with the chemical substance) of the same compound?
A: 2.3

Q: And the “The level of expressed mRNA in the presence of chemical substance/The level of expressed mRNA in the absence of chemical substance” value (yeast gene YMR261C, cells incubated two hours with the chemical substance)?
A: 3.6

Q: What about the “The level of expressed mRNA in the presence of chemical substance/The level of expressed mRNA in the absence of chemical substance” value (yeast gene YMR267W, cells incubated two hours with the chemical substance, 25° C., YPD medium) of the same compound?
A: 0.7

Q: And the “The level of expressed mRNA in the presence of chemical substance/The level of expressed mRNA in the absence of chemical substance” value (yeast gene YMR323W, cells incubated two hours with the chemical substance)?
A: 2.9

Q: And the “The level of expressed mRNA in the presence of chemical substance/The level of expressed mRNA in the absence of chemical substance” value (yeast gene YNL071W)?
A: 1.7

Q: What about the “The level of expressed mRNA in the presence of chemical substance/The level of expressed mRNA in the absence of chemical substance” value (yeast gene YNL202W, cells incubated two hours with the chemical substance) of the same compound?
A: 1.2

Q: And the “The level of expressed mRNA in the presence of chemical substance/The level of expressed mRNA in the absence of chemical substance” value (yeast gene YNL241C)?
A: 4.3

Q: What about the “The level of expressed mRNA in the presence of chemical substance/The level of expressed mRNA in the absence of chemical substance” value (yeast gene YNL331C) of the same compound?
A: 1.3

Q: And the “The level of expressed mRNA in the presence of chemical substance/The level of expressed mRNA in the absence of chemical substance” value (yeast gene YOL086C, cells incubated two hours with the chemical substance)?
A: 2.2

Q: What about the “The level of expressed mRNA in the presence of chemical substance/The level of expressed mRNA in the absence of chemical substance” value (yeast gene YOL165C) of the same compound?
A: 1.8

Q: And the “The level of expressed mRNA in the presence of chemical substance/The level of expressed mRNA in the absence of chemical substance” value (yeast gene YOR142W, cells incubated two hours with the chemical substance)?
A: 3.4

Q: What about the “The level of expressed mRNA in the presence of chemical substance/The level of expressed mRNA in the absence of chemical substance” value (yeast gene YOR178C, cells incubated two hours with the chemical substance) of the same compound?
A: 4.8

Q: And the “The level of expressed mRNA in the presence of chemical substance/The level of expressed mRNA in the absence of chemical substance” value (yeast gene YOR388C, cells incubated two hours with the chemical substance)?
A: 1.3

Q: What about the “The level of expressed mRNA in the presence of chemical substance/The level of expressed mRNA in the absence of chemical substance” value (yeast gene YPL031C, cells incubated two hours with the chemical substance) of the same compound?
A: 1.4

Q: What about the “The level of expressed mRNA in the presence of chemical substance/The level of expressed mRNA in the absence of chemical substance” value (yeast gene YPL061W, cells incubated two hours with the chemical substance) of the same compound?
A: 5.0

Q: What about the “The level of expressed mRNA in the presence of chemical substance/The level of expressed mRNA in the absence of chemical substance” value (yeast gene YPL088W) of the same compound?
A: 0.6

Q: What about the “The level of expressed mRNA in the presence of chemical substance/The level of expressed mRNA in the absence of chemical substance” value (yeast gene YPL171C) of the same compound?
A: 3.5

Q: What about the “The level of expressed mRNA in the presence of chemical substance/The level of expressed mRNA in the absence of chemical substance” value (yeast gene YPL240C) of the same compound?
A: 2.4

Q: What about the “The level of expressed mRNA in the presence of chemical substance/The level of expressed mRNA in the absence of chemical substance” value (yeast gene YPL262W, cells incubated two hours with the chemical substance) of the same compound?
A: 3.8

Q: And the “The level of expressed mRNA in the presence of chemical substance/The level of expressed mRNA in the absence of chemical substance” value (yeast gene YPL275W, cells incubated two hours with the chemical substance)?
A: 1.3

Q: And the “The level of expressed mRNA in the presence of chemical substance/The level of expressed mRNA in the absence of chemical substance” value (yeast gene YPL276W, cells incubated two hours with the chemical substance)?
A: 1.6

Q: And the “The level of expressed mRNA in the presence of chemical substance/The level of expressed mRNA in the absence of chemical substance” value (yeast gene YPR048W, cells incubated two hours with the chemical substance)?
A: 0.9

Q: And the “The level of expressed mRNA in the presence of chemical substance/The level of expressed mRNA in the absence of chemical substance” value (yeast gene YPR184W, cells incubated two hours with the chemical substance)?
A: 5.7

Source: patent US8192962B2, “Processes for detecting toxic substances” (Daikin Industries, Ltd., priority 2001, dated 2012)
